What all share (type): cell-based
Assay [1] has as its system Listeria monocytogenes. Briefly: MIC agar dilution, micro-organism 15 (11994). To be noted: Listeria monocytogenes 11994, read-out: MIC. The method, boiled down: (§1)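 Twofold dilutions of compound emulsions in water were set in Isosensitest agar with Brazier's CCEY medium, egg yolk and lysed horse blood. Spots of 1 µL from 0.5 McFarland suspensions diluted 1/15 were incubated aerobically at 37 °C and read at 22 and 48 h. MIC (mmol/L) was the lowest concentration giving <10 colonies.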

The subject of assay [2] is methicillin-resistant Staphylococcus aureus (MRSA). Briefly: MIC agar dilution, summary over 20 MRSA strains. Conditions: MRSA bacterial samples, 22 and 48 hour. On the procedure:
(§2) Given the positive performance of the ethoxylates of lauryl alcohol in reducing the MIC for a number of the micro-organisms tested, further MIC testing of Laureth-1 [C12E1] through to Laureth-8 [C12E8] was conducted on each of the following: • 10 strains of vancomycin-resistant enterococci (VRE)—listed in Table V below; and • 20 strains of methicillin-resistant Staphylococcus aureus (MRSA)—listed in Table VI.
(§3) The alkanol, alkanol derivatives, agar plates, and inocula were all prepared in the same way as described above.
(§4) The plates were examined in the same manner as described above and the results are recorded in Table VII below, where the numbers are quoted in mmol/L.

In assay [3] the test system is MRSA EMRSA 16 00036/95. Briefly: MIC agar dilution, MRSA strain 46. Conditions: Staphylococcus aureus. The procedure:
(§5) Molar equivalent concentrations were used to allow comparison between compounds of differing molecular mass. Due to weighing difficulties, any compound in solid form was melted in a water bath prior to dilution. To make ten-times strength concentrations, which takes into account agar dilution, 0.0352 mmol of each compound was weighed into plastic universal bottles and 4 mL of sterile distilled water (SDW) was added. To produce a homogenous emulsion the universals were vortexed; once achieved the emulsions were serial diluted by adding 2 mL to 2 mL of SDW.
(§6) For every 100 mL of Isosensitest agar (IST) (CM0471; Oxoid, Basingstoke, England), 3.1 g of the IST powder was added to 100 mL SDW (as per manufacturer's instructions) and sterilised for 15 minutes at 121° C. Once sterilised, the molten agar was cooled to 50° C. in a water-bath. Subsequently 4.8 g of CCEY powder (BC2160; Bioconnections, Wetherby, England), also known as Brazier's medium, was added to 100 mL SDW for every 100 mL of agar needed. This was then sterilised for 15 minutes at 121° C. Once sterilised the molten agar was cooled to 50° C. in a water-bath and 4 mL of egg-yolk emulsion (S2073; TCS Biosciences Ltd, Buckingham, United Kingdom) and 1 mL of lysed defibrinated horse blood (HB035; TCS Biosciences Ltd, Buckingham, United Kingdom) were also added for every 100 mL needed. Horse blood lysis is achieved by dilution to half concentration with SDW; when fully lysed the mixture will turn dark red in colour.
(§7) 18 mL agar was added to each universal and then poured into sterile Petri dishes. This step creates a 1/10 dilution resulting in agar plates of the required strength. Control plates for each set of strains were created by adding 18 mL of agar to 2 mL of SDW.
(§8) Suspensions of each bacterial species were prepared with a density equal to that of a 0.5 McFarland standard using a densitometer. All suspensions were made using sterile distilled water and fresh 18-20 hour cultures. As a 0.5 McFarland standard contains 1.5×10^8 CFU/mL and the multipoint inoculators applies 1 μL spots of liquid, each bacterial suspension was diluted 1/15 (20 μL suspension to 280 μL sterile distilled water).
(§9) Bacterial suspensions were prepared from fresh 18-24 hour cultures as previously described. 1 μL of each strain was inoculated onto all 100 agar plates containing a different chemical concentration and the 2 control plates. This was done using a multipoint inoculator which inoculates 20 strains per plate. All plates were incubated for 22 hours at 37° C. in aerobic conditions.
(§10) Each plate was examined for bacterial growth after 22 and 48 hours, with each being incubated in between examinations. A positive result was recorded as growth of ≧10 colonies. A negative result was recorded as growth of <10 colonies as this is equivalent to 99.9% inhibition. The lowest concentration of chemical that inhibited growth was recorded as the MIC. The results are recorded in Table IV below, where the numbers are quoted in mmol/L.
as §2, §3, §4

In assay [4] the test system is Enterococcus faecium (VRE) MB 305. Put plainly: MIC agar dilution, VRE strain 25. The procedure: as §5, §6, §7, §8, §9, §10, §2, §3, §4
Assay [5] concerns MRSA FRA 920. Briefly: MIC agar dilution, MRSA strain 38. Conditions: Staphylococcus aureus. The procedure:
as §5, §6, §7, §8, §9, §10, §2, §3, §4

Assay [6] concerns MRSA FIN 54511 (E6). Put plainly: MIC agar dilution, MRSA strain 32. Conditions: Staphylococcus aureus. On the procedure: as §5, §6, §7, §8, §9, §10, §2, §3, §4
Assay [7] concerns Enterococcus faecalis (VRE) MB 726. Put plainly: MIC agar dilution, VRE strain 28. On the procedure:
as §5, §6, §7, §8, §9, §10, §2, §3, §4

In assay [8] the test system is vancomycin-resistant enterococci (VRE). Briefly: MIC agar dilution, summary over 10 VRE strains. To be noted: Enterococcus; most, if not all, of the VRE samples. The procedure:
as §2, §3, §4

The subject of assay [9] is Enterococcus faecalis. Briefly: MIC agar dilution, micro-organism 17 (775). To be noted: Enterococcus faecalis 775, read-out: MIC. A digest of the protocol: as §1

The structures appear in SMILES notation. In brackets after ≈: the same amount, converted by molar mass. Like-named read-outs stand apart in the source and are kept apart here.

In the case of `CCCCCCCCCCCCOCCOCCOCCOCCO` [L4, Tetraethylene Glycol Monododecyl Ether], the MIC in assay [1] (22 hrs) is 110 µM (≈ 39.9 µg/mL); in assay [1] (48 hrs), 220 µM (≈ 79.8 µg/mL); in [2], about 55 µM (≈ 19.9 µg/mL); in [3] (22 hrs), 55 µM (≈ 19.9 µg/mL); in [3] (48 hrs), 55 µM (≈ 19.9 µg/mL); in assay [4] (22 hrs), 110 µM (≈ 39.9 µg/mL). Also, the MIC in [4] (48 hrs) was found to be 110 µM (≈ 39.9 µg/mL); in assay [5] (22 hrs), 55 µM (≈ 19.9 µg/mL); in [5] (48 hrs), 55 µM (≈ 19.9 µg/mL); in [6] (22 hrs), 110 µM (≈ 39.9 µg/mL); in [6] (48 hrs) it was 110 µM (≈ 39.9 µg/mL); in [7] (22 hrs), 220 µM (≈ 79.8 µg/mL). Besides, the MIC in assay [7] (48 hrs) is 220 µM (≈ 79.8 µg/mL); in assay [8], at most 440 µM; in assay [9] (22 hrs), 110 µM (≈ 39.9 µg/mL); in assay [9] (48 hrs), 110 µM (≈ 39.9 µg/mL).

Regarding `CCCCCCCCCCCCOCCOCCOCCOCCOCCOCCOCCO` [L7, Heptaethylene Glycol Monododecyl Ether], the MIC in assay [1] (22 hrs) was 220 µM (≈ 109 µg/mL); in [1] (48 hrs), 220 µM (≈ 109 µg/mL); in assay [2], about 440 µM (≈ 218 µg/mL); in assay [3] (22 hrs) it was 440 µM (≈ 218 µg/mL); in assay [3] (48 hrs) it was over 440 µM; in assay [4] (22 hrs), 220 µM (≈ 109 µg/mL). Besides, the MIC in assay [4] (48 hrs) was 220 µM (≈ 109 µg/mL); in assay [5] (22 hrs), 220 µM (≈ 109 µg/mL); in assay [5] (48 hrs) it was 440 µM (≈ 218 µg/mL); in [6] (22 hrs), 110 µM (≈ 54.4 µg/mL); in assay [6] (48 hrs), 440 µM (≈ 218 µg/mL); in assay [7] (22 hrs) it was over 880 µM. The results for the MIC in assay [7] (48 hrs), in [9] (22 hrs) and in assay [9] (48 hrs) were over 880 µM, 110 µM (≈ 54.4 µg/mL) and 110 µM (≈ 54.4 µg/mL), respectively.

Values taken from US20130165368A1, “ANTIMICROBIAL COMPOUNDS” (priority 2010, published 2013).
